US6514956B1, “Steroids, their preparation, pharmaceutical compositions thereof and uses of the compounds” (Shanghai Zhongxi Pharmaceutical Co., Ltd., priority 1999, dated 2003)

Legend:
[1] = compared with mifepristone; reported in Human Reproduction 1994; cited from earlier work
[2] = tested on: MNU-induced rat mammary cancer; assay: Inhibition of MNU-induced rat mammary cancer; assay type: in vivo, Sprague-Dawley rats; details: 30 days
Procedure: Sprague-Dawley rats which are 5-7 weeks old and weighing 90-120 g were treated with an amount of carcinogenic chemical (MNU, commercially available) to induce rat mammary cancer and were divided into a group with cancer-induction alone, a group with mifepristone and two treatment groups with the compound of formula (VI). Each group except for the group with cancer-induction alone was endogastrically administrated with corresponding dose one time per day. After 30 days, the animals were sacrificed by decapitation. Indices such as body weight and tumor weight of each group of the animals were compared. The mean value of the groups was calculated and the rate of tumor growth inhibition derived. Rate of tumor inhibition %=(mean value of the group with cancer-induction alone−mean value of the treatment group)/mean value of the group with cancer-induction alone×100%

[3] = tested on: pregnant rats, gravidity d1-4; assay: Anti-implantation effect in rat; assay type: in vivo, Sprague-Dawley rats; details: endogastric once a day for 4 days from gravidity d1, Bliss's method
Procedure: Both sexes of Sprague-Dawley rats were placed into a cage and were allowed to copulate. […] Pregnant rats were randomly divided into 10 groups of 10. The control group was administered with 0.5% CMC-Na solution. 5 Groups were administered with the compound of formula (VI) and 4 groups were administered with Mifepristone. The groups were administered endogastrically once a day for 4 consecutive days starting from gradivity d1. The groups of animals were laparotomized on gradivity d14 and their uterus examined. The number of pregnant animals was counted. ED50 of the two drugs was calculated with Bliss's method.

[4] = tested on: pregnant rats, gravidity d7-9; assay: Effect in stopping early pregnancy in rats; assay type: in vivo, Sprague-Dawley rats; details: for early pregnancy-stopping effect: rats of gravidity d7-9
Procedure: Both sexes of Sprague-Dawley rats were placed into a cage and were allowed to copulate. […] Pregnant rats were randomly divided into 11 groups of 10. The control group was administrated with 0.5% CMC-Na solution. 6 Groups were administered with the compound of formula (VI) at doses of 2.0, 1.6, 1.28, 1.02, 0.82 and 0.66 mg/kg respecticely. 4 Groups were administered with Mifepristone at doses of 3.5, 2.45, 1.72 and 1.2 mg/kg respectively. The groups were administered endogastrically once a day (dose 2 ml/kg) for 3 consecutive days starting from gradivity d7. Animals in which ecolporrhagia was not detected and no signs of embryo implantation were found on dissection examination were considered as not pregnant and were not counted. The animals were sacrificed and laparotomized on gradivity d14 and the numbers of living embryos, dead embryos, implantation sites and yellow bodies in the uterus were counted. The number of the pregnant animals were counted and compared with that of the control group. ED50 of the two test drugs and its credibility interval was calculated with Bliss's method.

[5] = tested on: Human mammary cancer cells MCF-7; assay: MTT test of killing tumor cells, MCF-7; assay type: cell-based; details: 4-6 days incubation
Procedure: (§1) Human mammary cancer cells (MCF-7, T47D, commercially available) were prepared as 1×10^4/ml cell suspension in RPMI 1640 medium containing 10% calf serum and used to inoculate a 96-well plate at 100 μl/well. The plate was incubated for 24 hours in an incubator in 5% CO2 at 37° C. Two experimental groups each receiving compound of formula (VI) or Mifepristone (commercially available) (triplicate well/group each receiving 100 μl RPMI 1640 medium containing various concentrations of drug) and a control group (each well receiving RPMI medium containing equal volume of solvent) were incubated for 4-6 days in an incubator in 5% CO2 at 37° C. The cultural supernatant was discarded and 0.04% 100 μl MTT prepared with RPMI 1640 was added into each well. Incubation was carried out at 37° C. for 4 hours. The supernatant was discarded and 150 μl dimethyl sulfoxide was added into each well to dissolve Fomazan particles. After being shaked slightly, OD value was measured using a Model 550 Enzyme Labelling Equipment at a wavelength of 540 nm. The rate of inhibition of cells was graphed against the various concentrations of the drug to produce a dosage response curve from which 50% inhibiting concentration IC50 was derived.

[6] = tested on: Human mammary cancer cells T47D; assay: MTT test of killing tumor cells, T47D; assay type: cell-based; details: 4-6 days incubation
Procedure: as §1

[7] = reported in European Journal of Cancer 1999; cited from earlier work
[8] = molecular target: T1, progesterone receptor in rabbit endometrium (Oryctolagus cuniculus, UniProt P06186); details: cited from earlier work
T1 construct: progesterone receptor in rabbit endometrium; host or cells: rabbit endometrium (tissue)
T1 sequence (P06186 1-930): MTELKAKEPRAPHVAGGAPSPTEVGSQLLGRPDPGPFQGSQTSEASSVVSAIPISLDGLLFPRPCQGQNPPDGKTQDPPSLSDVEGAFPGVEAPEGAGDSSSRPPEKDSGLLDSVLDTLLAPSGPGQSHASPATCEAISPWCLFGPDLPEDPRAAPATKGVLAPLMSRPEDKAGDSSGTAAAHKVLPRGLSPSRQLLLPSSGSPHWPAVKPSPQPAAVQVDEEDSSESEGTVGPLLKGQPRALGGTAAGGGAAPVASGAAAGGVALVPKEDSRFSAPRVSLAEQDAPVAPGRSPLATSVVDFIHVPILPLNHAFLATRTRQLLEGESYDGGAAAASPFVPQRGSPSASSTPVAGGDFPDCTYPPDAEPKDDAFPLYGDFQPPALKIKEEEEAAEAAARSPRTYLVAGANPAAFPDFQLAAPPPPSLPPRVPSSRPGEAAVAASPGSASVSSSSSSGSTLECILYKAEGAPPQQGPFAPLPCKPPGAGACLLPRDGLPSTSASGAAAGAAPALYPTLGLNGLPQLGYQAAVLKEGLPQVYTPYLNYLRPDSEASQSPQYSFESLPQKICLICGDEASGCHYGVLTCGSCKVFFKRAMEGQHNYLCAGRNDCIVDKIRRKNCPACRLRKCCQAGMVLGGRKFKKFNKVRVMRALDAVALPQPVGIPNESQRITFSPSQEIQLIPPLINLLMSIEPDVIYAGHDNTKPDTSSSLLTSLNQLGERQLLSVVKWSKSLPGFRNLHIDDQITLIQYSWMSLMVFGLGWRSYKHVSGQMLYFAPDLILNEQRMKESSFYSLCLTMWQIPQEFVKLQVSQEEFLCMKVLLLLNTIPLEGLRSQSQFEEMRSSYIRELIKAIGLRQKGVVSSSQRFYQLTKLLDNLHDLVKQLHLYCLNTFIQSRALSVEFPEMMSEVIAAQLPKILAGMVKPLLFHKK

## CN(C)c1ccc([C@H]2C[C@@]3(C)[C@@H](CC[C@@]3(O)/C=C\CO)[C@@H]3CCC4=CC(=O)CCC4=C32)cc1 [Lilopristone, 11β-[4-(N,N-dimethylamino)phenyl]-17α-[3-hydroxy-1(Z)-propenyl]-17β-hydroxy-4,9-estradiene-3-one]
[1]
  clinical effect in stopping early pregnancy: only equivalent to that of mifepristone

## CC#CC1(O)CCC2C3CCC4=CC(=O)CCC4=C3C(c3ccc(N(C)C4CCCCC4)cc3)CC21C (stereo not drawn) [compound of formula (VI), 11β-[4-(N-methyl-N-cyclohexylamino)phenyl]-17α-(1-propinyl)-17β-hydroxy-4,9-estradiene-3-one]
[2]; 10 mg/kg endogastrically once per day
  Inhibition (%) of tumor growth: 50.4%
[2]; 20 mg/kg endogastrically once per day
  Inhibition (%) of tumor growth: 89.3%
[3]
  anti-implantation ED50: 2.3409 ± 0.6191 mg/kg
[4]; 2 mg/kg/day
  early pregnancy-stopping effect: complete early pregnancy-stopping effect
[4]; rats, endogastric once a day for 3 days from gravidity d7, Bliss's method, credibility interval in brackets
  ED50, early pregnancy-stopping effect: 1.1439 ± 0.1590 mg/kg
[5]; MCF-7 cells
  IC50: 5.5 ± 0.72 µM
[6]
  IC50: 6.4 ± 3.15 µM

## CN(C)c1ccc([C@H]2C[C@]3(C)[C@@H](CC[C@]3(O)CCCO)[C@@H]3CCC4=CC(=O)CCC4=C32)cc1 [Onapristone, 11β-[4-(N,N-dimethylamino)phenyl]-17α-hydroxy-17β-(3-hydroxypropyl)-13α-4,9-estradiene-3-one]
[7]
  toxicity to human liver: had toxicity to human liver

## CC#C[C@]1(O)CC[C@H]2[C@@H]3CCC4=CC(=O)CCC4=C3[C@@H](c3ccc(N(C)C)cc3)C[C@@]21C [Mifepristone, 11β-[4-(N,N-dimethylamino)phenyl]-17α-(1-propinyl)-17β-hydroxy-4,9-estradiene-3-one]
[2]; 40 mg/kg endogastrically once per day
  Inhibition (%) of tumor growth: 72.1%
[8]
  affinity with progesterone receptor compared with progesterone: five-fold higher than that of progesterone
[3]; Rattus norvegicus, 96 h
  ED50: 6.69 ± 1.55 mg/kg
[4]; 3.5 mg/kg
  early pregnancy-stopping effect: complete early pregnancy-stopping effect
[4]; Rattus norvegicus, 72 h, rats, endogastric once a day for 3 days from gravidity d7, Bliss's method, credibility interval in brackets
  ED50: 2.12 ± 0.447 mg/kg
[5]; Homo sapiens, MCF7, MCF-7 cells
  IC50: 10.8 ± 8.1 µM
[6]; Homo sapiens
  IC50: 11 ± 9.03 µM
